Data set [1] is described as follows: Metabolic stability in liver microsomes of beagle dogs. Type of data set: in vitro ADME. To be noted: dog. The method, then: Objective: The metabolic stability of the tested compound of formula (I) in liver microsomes of rats, beagle dogs and cynomolgus monkeys was determined. […]
On the technique in general: Liver microsomes are a subcellular fraction often used to study metabolism.

The subject of another data set is HBV. Nature of the data set: qPCR assay for in vitro testing of HBV (HBV DNA content in HepG2.2.15 cells). Type of data set: cell-based. To be noted: Hepatitis B virus, 192 h, HBV DNA by qPCR, day 8, read-out: Concentration for 50% of maximal effect (EC50) of HBV. The method, then: HBV DNA content in HepG2.2.15 cells was detected by a real time-qPCR assay, and the inhibitory action of the compound on HBV was evaluated by taking the EC50 value of the compound as an index.
2.1. cell lines: HepG2.2.15 cells
3.1. HepG2.2.15 cells (4×10^4 cells/well) were plated in a 96-well plate and cultured overnight at 37° C. and 5% CO2.
3.2. On the next day, the compound was diluted for a total of 8 concentrations, with 3-fold gradient dilutions. The compound at different concentrations was added into the culture wells in duplicate. The final concentration of DMSO in the culture medium was 1%. 1 μM GLS4 served as 100% inhibition control (WO2008154817A1 discloses the structure of GLS4 as follows:
DMSO at 1% served as 0% inhibition control.
3.3. On the fifth day, the original culture medium was replaced with a fresh culture medium containing the compound.
3.4. On the eighth day, the culture medium in the culture wells was collected, and the high-throughput DNA purification kit (Qiagen-51162) was used to extract DNA. For specific steps, refer to the product manual.
3.6. 15 μL of the reaction mixture was added into each well of the 96-well PCR plate, and then 10 μL of sample DNA or HBV DNA standard was added into each well.
3.7. Reaction conditions for PCR were as follows: heating at 95° C. for 10 min; then denaturating at 95° C. for 15 s and extending at 60° C. for 1 min for 40 cycles.
3.8.1. […]

The next data set concerns the target T1, CYP3A4 (Homo sapiens, UniProt P08684).
T1 construct: from tissue; host or cells: human liver microsomes
Nature of the data set: Inhibition of human liver microsomal cytochrome P450 isoenzyme CYP3A4. Particulars: human liver microsomes. Format: in vitro ADME. The method, then:
(§1) Objective: The inhibitory effect of the test compound on the activity of human liver microsomal cytochrome P450 isoenzymes (CYP1A2, CYP2C9, CYP2C19, CYP2D6 and CYP3A4) was determined. […]

The target of another data set is T2, CYP2D6 (Homo sapiens, UniProt P10635).
T2 construct: from tissue; host or cells: human liver microsomes
T2 sequence (P10635 whole entry): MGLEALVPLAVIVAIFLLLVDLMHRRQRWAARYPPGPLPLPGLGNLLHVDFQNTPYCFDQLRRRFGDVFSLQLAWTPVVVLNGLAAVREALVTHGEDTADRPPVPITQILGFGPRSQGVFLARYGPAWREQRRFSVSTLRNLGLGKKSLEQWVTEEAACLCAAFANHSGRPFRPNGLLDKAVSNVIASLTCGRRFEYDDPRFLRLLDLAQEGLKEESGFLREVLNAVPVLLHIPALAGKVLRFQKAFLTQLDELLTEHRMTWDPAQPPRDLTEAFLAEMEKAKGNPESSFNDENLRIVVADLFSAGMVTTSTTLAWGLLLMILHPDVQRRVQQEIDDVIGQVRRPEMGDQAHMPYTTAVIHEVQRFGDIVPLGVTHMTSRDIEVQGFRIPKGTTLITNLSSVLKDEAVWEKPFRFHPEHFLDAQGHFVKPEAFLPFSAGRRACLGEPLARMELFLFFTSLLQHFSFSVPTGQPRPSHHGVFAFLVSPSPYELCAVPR
Nature of the data set: Inhibition of human liver microsomal cytochrome P450 isoenzyme CYP2D6. Format: in vitro ADME. To be noted: human liver microsomes. The method, then:
as §1

Another data set addresses T3, CYP2C9 (Homo sapiens, UniProt P11712).
T3 construct: from tissue; host or cells: human liver microsomes
Nature of the data set: Inhibition of human liver microsomal cytochrome P450 isoenzyme CYP2C9. Format: in vitro ADME. To be noted: human liver microsomes. Here is the method:
as §1

A value given as a limit tells only on which side of the number the result lay.

T3 sequence (P11712 whole entry): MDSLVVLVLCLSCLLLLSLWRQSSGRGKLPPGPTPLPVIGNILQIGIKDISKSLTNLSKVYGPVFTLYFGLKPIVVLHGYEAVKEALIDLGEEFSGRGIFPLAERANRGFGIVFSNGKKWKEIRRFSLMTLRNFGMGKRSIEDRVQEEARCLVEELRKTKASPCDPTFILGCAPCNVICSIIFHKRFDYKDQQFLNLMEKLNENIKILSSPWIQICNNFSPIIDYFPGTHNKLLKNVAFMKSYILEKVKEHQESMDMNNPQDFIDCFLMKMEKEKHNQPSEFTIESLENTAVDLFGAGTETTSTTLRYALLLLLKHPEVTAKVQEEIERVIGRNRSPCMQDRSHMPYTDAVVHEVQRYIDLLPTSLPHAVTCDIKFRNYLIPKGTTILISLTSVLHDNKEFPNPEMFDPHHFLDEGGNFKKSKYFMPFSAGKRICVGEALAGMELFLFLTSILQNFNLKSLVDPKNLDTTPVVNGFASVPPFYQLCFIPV
T1 sequence (P08684 whole entry): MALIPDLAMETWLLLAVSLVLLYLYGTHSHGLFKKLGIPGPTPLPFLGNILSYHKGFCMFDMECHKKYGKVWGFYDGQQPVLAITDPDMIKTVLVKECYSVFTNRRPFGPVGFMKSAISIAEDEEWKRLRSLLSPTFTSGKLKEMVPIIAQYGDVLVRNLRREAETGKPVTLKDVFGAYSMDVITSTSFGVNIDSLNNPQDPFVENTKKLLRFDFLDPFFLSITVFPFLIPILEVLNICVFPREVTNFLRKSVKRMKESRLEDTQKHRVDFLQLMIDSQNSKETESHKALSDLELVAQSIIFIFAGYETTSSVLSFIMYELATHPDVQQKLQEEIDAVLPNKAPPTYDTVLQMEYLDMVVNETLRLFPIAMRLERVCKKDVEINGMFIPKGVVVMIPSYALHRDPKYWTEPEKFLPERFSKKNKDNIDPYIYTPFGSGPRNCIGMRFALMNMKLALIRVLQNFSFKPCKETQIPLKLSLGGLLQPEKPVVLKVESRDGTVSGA

As a reminder, the microsomal CLint is the capacity of the preparation to metabolise the compound, expressed as a volume cleared per time. A lower microsomal CLint goes with greater metabolic stability. In general, CLint scaled refers to the rate of metabolic loss divided by the concentration. Broadly, the half-life is the time needed for the level to fall by half in the phase considered. A lower half-life goes with fast loss. Broadly, the IC50 is the concentration that gives 50% inhibition. Low readings indicate inhibition by little substance, high ones a need for much substance. In data set [1] (beagle, microsomes), `CC1(NC(=O)C(=O)c2c(Cl)c(C(=O)Nc3cc(F)c(F)c(F)c3)c3n2CCC3)CCC(CC(=O)O)CC1` (stereo not shown) [Compound of formula (I)] yielded a microsomal CLint at 1 μM of less than 9.6 µL/min/mg. This compound had a CLint scaled at 1 μM in data set [1] (Beagle dogs liver microsomes) of less than 13.8 mL/min/kg. In data set [1] (Beagle dogs liver microsomes, 1 μM compound, 0.5 mg/mL), this compound returned a half-life at 1 μM greater than 2.42 h. In addition, the EC50 with HBV was determined as 0.004 µM. Besides, the IC50 at CYP3A4, against CYP2D6 and on CYP2C9 was greater than 50 µM throughout.

The values are drawn from patent publication US20230026869A1, “CRYSTAL FORM OF NUCLEOPROTEIN INHIBITOR AND USE THEREOF” (CHIA TAI TIANQING PHARMACEUTICAL GROUP CO., LTD., priority 2019, published 2023).
